Assay results published in patent US9738634B2, “Heterocyclic amide compound and herbicide” (SYNGENTA PARTICIPATIONS AG, priority 2013, dated 2017).

Legend:
Format in all cases: in vivo
Conditions in all cases: treatment dosage 320 g/ha
chickweed [1] = assay: Test Example 3: weedkilling efficacy through soil treatment; N: chickweed
Outline: (§1)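 Crop and weed responses were judged three weeks after a uniform surface spray of the water-diluted emulsion at the given g/ha rate. Seeds sat beneath about 1.5 cm of sterilized diluvial soil, and boxes stood in a greenhouse at 25 to 30° C.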

transplanted rice = assay: Test Example 1: preemergent weed treatment in the submerged state, effect on crop; a: transplanted rice
Outline: (§2)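 Pre-emergence application onto floodwater (4 cm, alluvial soil) on the day of sowing, dose expressed as g/ha from diluted emulsion formulation. Weeds sown with 2.5-leaf transplanted rice as crop; plants held at 25–30 °C in greenhouse and scored against assessment criteria after 3 weeks.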

crabgrass [2] = assay: Test Example 4: weedkilling efficacy by foliar treatment; D: crabgrass
Outline: (§3)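 Seeds are spot-sown into sterilized diluvial soil and covered with about 1.5 cm of soil. After 14 days' greenhouse growth at 25 to 30° C, plants are sprayed on stems and leaves with diluted emulsion at the stated g/ha rate, then scored at 3 weeks.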

barnyard grass [3] = assay: Test Example 1: weedkilling efficacy, preemergent weed treatment in the submerged state; A: barnyard grass
Outline: as §2

barnyard grass [4] = assay: Test Example 4: weedkilling efficacy by foliar treatment; F: barnyard grass
Outline: as §3

bulrush [5] = assay: Test Example 1: weedkilling efficacy, preemergent weed treatment in the submerged state; B: bulrush
Outline: as §2

Italian ryegrass [6] = assay: Test Example 3: weedkilling efficacy through soil treatment; I: Italian ryegrass
Outline: as §1

wheat [7] = assay: Test Example 4: foliar treatment, effect on crop; e: wheat
Outline: as §3

directly sown rice [8] = assay: Test Example 4: foliar treatment, effect on crop; b: directly sown rice
Outline: as §3

green foxtail [9] = assay: Test Example 4: weedkilling efficacy by foliar treatment; E: green foxtail
Outline: as §3

bulrush [10] = assay: Test Example 2: weedkilling efficacy, growth period weed treatment in the submerged state; B: bulrush
Outline: (§4)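 Weeds treated at the 1-2 leaf stage by application of diluted emulsion onto floodwater (4 cm depth, alluvial soil) at specified g/ha. Grown in greenhouse at 25 to 30° C; herbicidal effect rated three weeks after treatment.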

green foxtail [11] = assay: Test Example 3: weedkilling efficacy through soil treatment; E: green foxtail
Outline: as §1

fig-leafed goosefoot [12] = assay: Test Example 3: weedkilling efficacy through soil treatment; M: fig-leafed goosefoot
Outline: as §1

Indian mallow [13] = assay: Test Example 4: weedkilling efficacy by foliar treatment; K: Indian mallow
Outline: as §3

black-grass [14] = assay: Test Example 3: weedkilling efficacy through soil treatment; H: black-grass
Outline: as §1

oval-leafed pondweed [15] = assay: Test Example 1: weedkilling efficacy, preemergent weed treatment in the submerged state; C: oval-leafed pondweed
Outline: as §2

rapeseed [16] = assay: Test Example 4: foliar treatment, effect on crop; g: rapeseed
Outline: as §3

oval-leafed pondweed [17] = assay: Test Example 2: weedkilling efficacy, growth period weed treatment in the submerged state; C: oval-leafed pondweed
Outline: as §4

soybean [18] = assay: Test Example 4: foliar treatment, effect on crop; d: soybean
Outline: as §3

barnyard grass [19] = assay: Test Example 3: weedkilling efficacy through soil treatment; F: barnyard grass
Outline: as §1

fig-leafed goosefoot [20] = assay: Test Example 4: weedkilling efficacy by foliar treatment; M: fig-leafed goosefoot
Outline: as §3

Indian mallow [21] = assay: Test Example 3: weedkilling efficacy through soil treatment; K: Indian mallow
Outline: as §1

beet [22] = assay: Test Example 3: soil treatment, effect on crop; f: beet
Outline: as §1

chickweed [23] = assay: Test Example 4: weedkilling efficacy by foliar treatment; N: chickweed
Outline: as §3

corn [24] = assay: Test Example 4: foliar treatment, effect on crop; c: corn
Outline: as §3

beet [25] = assay: Test Example 4: foliar treatment, effect on crop; f: beet
Outline: as §3

soybean [26] = assay: Test Example 3: soil treatment, effect on crop; d: soybean
Outline: as §1

wild oat [27] = assay: Test Example 4: weedkilling efficacy by foliar treatment; G: wild oat
Outline: as §3

barnyard grass [28] = assay: Test Example 2: weedkilling efficacy, growth period weed treatment in the submerged state; A: barnyard grass
Outline: as §4

rapeseed [29] = assay: Test Example 3: soil treatment, effect on crop; g: rapeseed
Outline: as §1

common wind-grass [30] = assay: Test Example 3: weedkilling efficacy through soil treatment; J: common wind-grass
Outline: as §1

crabgrass [31] = assay: Test Example 3: weedkilling efficacy through soil treatment; D: crabgrass
Outline: as §1

wild oat [32] = assay: Test Example 3: weedkilling efficacy through soil treatment; G: wild oat
Outline: as §1

black-grass [33] = assay: Test Example 4: weedkilling efficacy by foliar treatment; H: black-grass
Outline: as §3

catchweed = assay: Test Example 4: weedkilling efficacy by foliar treatment; O: catchweed
Outline: as §3

common wind-grass [34] = assay: Test Example 4: weedkilling efficacy by foliar treatment; J: common wind-grass
Outline: as §3

birds-eye speedwell [35] = assay: Test Example 3: weedkilling efficacy through soil treatment; p: birds-eye speedwell
Outline: as §1

birds-eye speedwell [36] = assay: Test Example 4: weedkilling efficacy by foliar treatment; p: birds-eye speedwell
Outline: as §3

Italian ryegrass [37] = assay: Test Example 4: weedkilling efficacy by foliar treatment; I: Italian ryegrass
Outline: as §3

wheat [38] = assay: Test Example 3: soil treatment, effect on crop; e: wheat
Outline: as §1

redroot pigweed [39] = assay: Test Example 4: weedkilling efficacy by foliar treatment; L: redroot pigweed
Outline: as §3

corn [40] = assay: Test Example 3: soil treatment, effect on crop; c: corn
Outline: as §1

directly sown rice [41] = assay: Test Example 3: soil treatment, effect on crop; b: directly sown rice
Outline: as §1

redroot pigweed [42] = assay: Test Example 3: weedkilling efficacy through soil treatment; L: redroot pigweed
Outline: as §1

In the case of `COc1cc(C(F)(F)F)cc(NC(=O)C(C)(C)N2COC(C)=C(c3ccccc3)C2=O)n1` [B-2-49], the “N (chickweed) weedkilling efficacy grade” value (chickweed [1]) is reported as 4 (weed kill ratio 70% or more, less than 90%), the “a (transplanted rice) effect on crop grade” value (transplanted rice) is reported as 3 (weed kill ratio 40% or more, less than 70%) and the “D (crabgrass) weedkilling efficacy grade” value (crabgrass [2]) is reported as 5 (weed kill ratio 90% or more, (practically complete withering)). The “A (barnyard grass) weedkilling efficacy grade” value (barnyard grass [3]) was 5 (weed kill ratio 90% or more, (practically complete withering)), the “F (barnyard grass) weedkilling efficacy grade” value (barnyard grass [4]) was 4 (weed kill ratio 70% or more, less than 90%) and the “B (bulrush) weedkilling efficacy grade” value (bulrush [5]) was 5 (weed kill ratio 90% or more, (practically complete withering)). For the same molecule, the “I (Italian ryegrass) weedkilling efficacy grade” value (Italian ryegrass [6]) was 5 (weed kill ratio 90% or more, (practically complete withering)), the “e (wheat) effect on crop grade” value (wheat [7]) was 0 (weed kill ratio 5% or less (practically no effect)) and the “b (directly sown rice) effect on crop grade” value (directly sown rice [8]) was 0 (weed kill ratio 5% or less (practically no effect)). The “E (green foxtail) weedkilling efficacy grade” value (green foxtail [9]) was 5 (weed kill ratio 90% or more, (practically complete withering)), the “B (bulrush) weedkilling efficacy grade” value (bulrush [10]) was 5 (weed kill ratio 90% or more, (practically complete withering)) and the “E (green foxtail) weedkilling efficacy grade” value (green foxtail [11]) was 5 (weed kill ratio 90% or more, (practically complete withering)). The “M (fig-leafed goosefoot) weedkilling efficacy grade” value (fig-leafed goosefoot [12]) was 3 (weed kill ratio 40% or more, less than 70%), the “K (Indian mallow) weedkilling efficacy grade” value (Indian mallow [13]) was 4 (weed kill ratio 70% or more, less than 90%) and the “H (black-grass) weedkilling efficacy grade” value (black-grass [14]) was 5 (weed kill ratio 90% or more, (practically complete withering)). For the same molecule, the “C (oval-leafed pondweed) weedkilling efficacy grade” value (oval-leafed pondweed [15]) was 5 (weed kill ratio 90% or more, (practically complete withering)), the “g (rapeseed) effect on crop grade” value (rapeseed [16]) was 3 (weed kill ratio 40% or more, less than 70%) and the “C (oval-leafed pondweed) weedkilling efficacy grade” value (oval-leafed pondweed [17]) was 5 (weed kill ratio 90% or more, (practically complete withering)). For the same molecule, the “d (soybean) effect on crop grade” value (soybean [18]) was 3 (weed kill ratio 40% or more, less than 70%), the “F (barnyard grass) weedkilling efficacy grade” value (barnyard grass [19]) was 5 (weed kill ratio 90% or more, (practically complete withering)) and the “M (fig-leafed goosefoot) weedkilling efficacy grade” value (fig-leafed goosefoot [20]) was 3 (weed kill ratio 40% or more, less than 70%). The “K (Indian mallow) weedkilling efficacy grade” value (Indian mallow [21]) was 1 (weed kill ratio 5% or more, less than 20%), the “f (beet) effect on crop grade” value (beet [22]) was 3 (weed kill ratio 40% or more, less than 70%) and the “N (chickweed) weedkilling efficacy grade” value (chickweed [23]) was 3 (weed kill ratio 40% or more, less than 70%). For the same molecule, the “c (corn) effect on crop grade” value (corn [24]) was 3 (weed kill ratio 40% or more, less than 70%), the “f (beet) effect on crop grade” value (beet [25]) was 3 (weed kill ratio 40% or more, less than 70%) and the “d (soybean) effect on crop grade” value (soybean [26]) was 0 (weed kill ratio 5% or less (practically no effect)). The “G (wild oat) weedkilling efficacy grade” value (wild oat [27]) was 3 (weed kill ratio 40% or more, less than 70%), the “A (barnyard grass) weedkilling efficacy grade” value (barnyard grass [28]) was 5 (weed kill ratio 90% or more, (practically complete withering)) and the “g (rapeseed) effect on crop grade” value (rapeseed [29]) was 3 (weed kill ratio 40% or more, less than 70%). For the same molecule, the “J (common wind-grass) weedkilling efficacy grade” value (common wind-grass [30]) was 5 (weed kill ratio 90% or more, (practically complete withering)), the “D (crabgrass) weedkilling efficacy grade” value (crabgrass [31]) was 5 (weed kill ratio 90% or more, (practically complete withering)) and the “G (wild oat) weedkilling efficacy grade” value (wild oat [32]) was 3 (weed kill ratio 40% or more, less than 70%). The “H (black-grass) weedkilling efficacy grade” value (black-grass [33]) was 3 (weed kill ratio 40% or more, less than 70%), the “O (catchweed) weedkilling efficacy grade” value (catchweed) was 3 (weed kill ratio 40% or more, less than 70%) and the “J (common wind-grass) weedkilling efficacy grade” value (common wind-grass [34]) was 4 (weed kill ratio 70% or more, less than 90%). The “P (birds-eye speedwell) weedkilling efficacy grade” value (birds-eye speedwell [35]) was 5 (weed kill ratio 90% or more, (practically complete withering)), the “P (birds-eye speedwell) weedkilling efficacy grade” value (birds-eye speedwell [36]) was 4 (weed kill ratio 70% or more, less than 90%) and the “I (Italian ryegrass) weedkilling efficacy grade” value (Italian ryegrass [37]) was 1 (weed kill ratio 5% or more, less than 20%). For the same molecule, the “e (wheat) effect on crop grade” value (wheat [38]) was 0 (weed kill ratio 5% or less (practically no effect)), the “L (redroot pigweed) weedkilling efficacy grade” value (redroot pigweed [39]) was 3 (weed kill ratio 40% or more, less than 70%) and the “c (corn) effect on crop grade” value (corn [40]) was 0 (weed kill ratio 5% or less (practically no effect)). For the same molecule, the “b (directly sown rice) effect on crop grade” value (directly sown rice [41]) was 3 (weed kill ratio 40% or more, less than 70%) and the “L (redroot pigweed) weedkilling efficacy grade” value (redroot pigweed [42]) was 4 (weed kill ratio 70% or more, less than 90%).
